The source of these data is US20070037807A1, “Pyridine compounds as inhibitors of dipeptidyl peptidase IV” (priority 2003, published 2007).

pIC50: −log10 of the molar value. Where a name gives a salt, the structure may show the parent alone.

For the first data set, the target named is T1, dipeptidyl peptidase IV (Rattus norvegicus, UniProt P14740).
T1 construct: from tissue; host or cells: SD rat blood plasma
T1 sequence (P14740 37-767 limits assumed): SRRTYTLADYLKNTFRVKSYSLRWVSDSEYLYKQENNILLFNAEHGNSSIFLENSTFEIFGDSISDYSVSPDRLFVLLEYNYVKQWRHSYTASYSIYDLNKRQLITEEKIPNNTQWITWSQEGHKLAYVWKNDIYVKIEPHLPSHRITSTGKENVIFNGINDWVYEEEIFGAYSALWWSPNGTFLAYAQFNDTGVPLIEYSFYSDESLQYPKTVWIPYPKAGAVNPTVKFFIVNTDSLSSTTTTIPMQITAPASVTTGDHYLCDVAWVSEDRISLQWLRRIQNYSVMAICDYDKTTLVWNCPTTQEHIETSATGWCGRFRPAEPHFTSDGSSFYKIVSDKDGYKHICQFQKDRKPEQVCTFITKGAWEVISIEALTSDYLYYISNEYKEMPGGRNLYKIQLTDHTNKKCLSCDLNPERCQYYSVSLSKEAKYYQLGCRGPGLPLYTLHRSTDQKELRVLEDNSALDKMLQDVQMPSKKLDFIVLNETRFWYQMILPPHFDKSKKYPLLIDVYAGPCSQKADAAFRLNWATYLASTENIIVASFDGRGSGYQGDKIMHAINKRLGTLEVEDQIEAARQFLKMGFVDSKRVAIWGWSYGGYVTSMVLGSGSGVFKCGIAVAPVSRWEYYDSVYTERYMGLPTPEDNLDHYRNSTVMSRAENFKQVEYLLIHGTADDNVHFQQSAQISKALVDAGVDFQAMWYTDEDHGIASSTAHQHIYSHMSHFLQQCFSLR
As to the kind of experiment: Determination of dipeptidyl peptidase IV inhibitory activity in rat plasma. Type of data set: biochemical, SD rat.
Details: not given
As to the method: Determination of Dipeptidyl Peptidase IV Inhibitory Activity in Rat Plasma
An N,N-dimethylformamide solution (1 μL) containing the test compound was added to a mixture of water (69 μL), 1 M Tris-hydrochloride buffer (10 μL, pH 7.5) and 1 mM aqueous Gly-Pro-p-NA solution (100 μL) to prepare a mixed solution. […] At the same time, an increase (ΔODc) in absorbance of the reaction mixture without the test compound, and an increase (ΔODb) in absorbance of the reaction mixture without the test compound and the enzyme were determined and percent inhibition of dipeptidyl peptidase IV enzyme activity was calculated from the following formula: {1-[(ΔODs−ΔODb)/(ΔODc−ΔODb)]}×100
Compound `Cc1ccc(-c2c(CN)c(CC(C)C)nc(C)c2C(=O)OCc2ccc(C(=O)O)cc2)cc1` [Example 170, 4-[({[5-(aminomethyl)-6-isobutyl-2-methyl-4-(4-methylphenyl)pyridin-3-yl]carbonyl}oxy)methyl]benzoic acid dihydrochloride] gave a pIC50 of 7.00.

The data set is the same for the next values; noted with them: Experimental Example 1; SD rat plasma, Gly-Pro-p-NA substrate, 30° C., 1 hr, absorbance 405 nm; read-out: IC50 value (dipeptidyl peptidase IV inhibitory activity).
Take `COC(=O)c1c(C)nc(CC(C)C)c(CN)c1-c1ccc(C)cc1` [Example 1, methyl 5-(aminomethyl)-6-isobutyl-2-methyl-4-(4-methylphenyl)nicotinate]: the pIC50 was 6.28.

The data set is the same for the next values; noted with them: Experimental Example 2; same manner as Experimental Example 1; SD rat plasma, Gly-Pro-p-NA substrate, 30° C.; read-out: IC50 value (dipeptidyl peptidase IV inhibitory activity).
Turning to `CCOC(=O)C1CCN(C(=O)Cc2c(C)nc(CC(C)C)c(CN)c2-c2ccc(C)cc2)CC1` [Example 421, ethyl 1-{[5-(aminomethyl)-6-isobutyl-2-methyl-4-(4-methylphenyl)pyridin-3-yl]acetyl}piperidine-4-carboxylate dihydrochloride], the pIC50 is 7.80. Same read-out and setting: under `Cc1ccc(-c2c(CN)c(CC(C)C)nc(C)c2NC(=O)c2cnoc2)cc1` [Example 350, N-[5-(aminomethyl)-6-isobutyl-2-methyl-4-(4-methylphenyl)pyridin-3-yl]isoxazole-4-carboxamide dihydrochloride] stands 7.82; under `Cc1ccc(-c2c(CN)c(CC(C)C)nc(C)c2NC(=O)c2ccc(F)cc2)cc1` [Example 267, N-[5-(aminomethyl)-6-isobutyl-2-methyl-4-(4-methylphenyl)pyridin-3-yl]-4-fluorobenzamide dihydrochloride], 8.13.

With `Cc1ccc(-c2c(CC(=O)N3CCOCC3)c(C)nc(CC(C)C)c2CN)cc1` [Example 312, {[2-isobutyl-6-methyl-4-(4-methylphenyl)-5-(2-morpholin-4-yl-2-oxoethyl)pyridin-3-yl]methyl}amine dihydrochloride], the pIC50 is 7.70. The same measure, in the same setting: the figure for `Cc1ccc(-c2c(CN)c(CC(C)C)nc(C(C)C)c2C(=O)O)cc1` [Example 26, 5-(aminomethyl)-6-isobutyl-2-isopropyl-4-(4-methylphenyl)nicotinic acid dihydrochloride] is 8.29; for `COC(=O)c1cn(C)nc1OCc1c(C)nc(CC(C)C)c(CN)c1-c1ccc(C)cc1` [Example 305, methyl 3-{[5-(aminomethyl)-6-isobutyl-2-methyl-4-(4-methylphenyl)pyridin-3-yl]methoxy}-1-methyl-1H-pyrazole-4-carboxylate dihydrochloride] it is 8.46; for `Cc1ccc(-c2c(CSc3ccccc3C(N)=O)c(C)nc(CC(C)C)c2CN)cc1` [Example 210, 2-({[5-(aminomethyl)-6-isobutyl-2-methyl-4-(4-methylphenyl)pyridin-3-yl]methyl}thio)benzamide dihydrochloride] it is 7.92.

As for `Cc1ccc(-c2c(CC(=O)N3CCC(C(=O)O)CC3)c(C)nc(CC(C)C)c2CN)cc1` [Example 422, 1-{[5-(aminomethyl)-6-isobutyl-2-methyl-4-(4-methylphenyl)pyridin-3-yl]acetyl}piperidine-4-carboxylic acid dihydrochloride], the pIC50 is 8.14.

Test system in a further data set: not given
Experiment: not given
Details: not given
The compound `Cc1nc(CC(C)C)c(CN)c(-c2ccc(Cl)cc2)c1C(=O)OC(C)(C)C` [Example 23, tert-butyl 5-(aminomethyl)-4-(4-chlorophenyl)-6-isobutyl-2-methylnicotinate] gave a melting point of 81 to 83 °C. The same measure, in the same setting: the figure for `COC(=O)c1c(C)nc(CC(C)C)c(CN)c1-c1ccc(C)cc1` [Example 1, methyl 5-(aminomethyl)-6-isobutyl-2-methyl-4-(4-methylphenyl)nicotinate] is 56 to 57 °C.
